Assays:
[1] = Binding affinity to synthetic 3'-biotin-labelled mirrored pre-miR-21 RNA by ELISA
[2] = Binding affinity to synthetic 3'-biotin-labelled pre-miR-21 RNA assessed as inhibition of human recombinant Dicer-mediated pre-miR-21 processing by measuring reduction in mature miR-21 formation pretreated for 30 mins followed by dicer addition after 2 hrs by SYBR staining based PAGE analysis
[3] = Binding affinity to synthetic 3'-biotin-labelled pre-miR-21 RNA by ELISA

EC50 [1] [nM]	IC50 [2] [nM]	EC50 [3] [nM]	SMILES
1600	540	440	CC(C)[C@@H](NC(=O)[C@@H](C)NC(=O)[C@@H](CCCNC(=N)N)NC(=O)[C@H]1CSSC[C@@H](NC(=O)[C@@H](CCCNC(=N)N)NC(=O)CNC(=O)[C@H]2CCCN2C(=O)CCCC[C@@H]2SC[C@@H]3NC(=O)N[C@@H]32)C(=O)N[C@H](CCCCN)C(=O)N2CCC[C@@H]2C(=O)N[C@H](CCCCN)C(=O)N[C@H](CCCNC(=N)N)C(=O)N[C@H](CCCNC(=N)N)C(=O)N[C@H](CCCNC(=N)N)C(=O)N[C@H](CCCNC(=N)N)C(=O)N[C@H](C)C(=O)N[C@H]([C@H](C)O)C(=O)N1)C(=O)O
150	–	7400	CC(C)[C@H](NC(=O)[C@H](C)NC(=O)[C@H](CCCNC(=N)N)NC(=O)[C@@H]1CSSC[C@H](NC(=O)[C@H](CCCNC(=N)N)NC(=O)CNC(=O)[C@@H]2CCCN2C(=O)CCCC[C@@H]2SC[C@@H]3NC(=O)N[C@@H]32)C(=O)N[C@@H](CCCCN)C(=O)N2CCC[C@H]2C(=O)N[C@@H](CCCCN)C(=O)N[C@@H](CCCNC(=N)N)C(=O)N[C@@H](CCCNC(=N)N)C(=O)N[C@@H](CCCNC(=N)N)C(=O)N[C@@H](CCCNC(=N)N)C(=O)N[C@@H](C)C(=O)N[C@@H]([C@@H](C)O)C(=O)N1)C(=O)O

From ChEMBL document CHEMBL3997793, “Discovery of peptidic miR-21 processing inhibitor by mirror image phage display: A novel method to generate RNA binding D-peptides” (Bioorg Med Chem Lett, 2017)
